Measured values from ChEMBL document CHEMBL2375306, “Antimicrobial peptides containing unnatural amino acid exhibit potent bactericidal activity against ESKAPE pathogens” (Bioorg Med Chem, 2013).
Converted amounts (≈) assume the structure as drawn. Square brackets hold non-standard residues; d marks the D form. Peptide text beside a SMILES is read from it. * marks the point of attachment. ξ: configuration not given here. Pro(3ξ,4ξ-(CH2)4) = O=C(O)[C@H]1NCC2CCCCC21; Tic = O=C(O)[C@@H]1Cc2ccccc2CN1; X4 = CC(=O)NC(=O)[C@H](CCCN)N*; Orn = NCCC[C@H](N)C(=O)O; βAla = NCCC(=O)O

Assays:
Assay type in all cases: functional
Pseudomonas aeruginosa = experiment: Antibacterial activity against Pseudomonas aeruginosa PAO1 after 24 hrs by broth microdilution method; conditions: PAO1, 24 h
Klebsiella aerogenes = experiment: Antibacterial activity against Enterobacter aerogenes after 24 hrs by broth microdilution method
Enterococcus faecium = experiment: Antibacterial activity against Enterococcus faecium MMC4 after 24 hrs by broth microdilution method; conditions: MMC4, 24 h
Acinetobacter baumannii = experiment: Antibacterial activity against Acinetobacter baumannii WRAIR clinical isolate 13 after 24 hrs by broth microdilution method; conditions: WRAIR clinical isolate 13, 24 h
Klebsiella pneumoniae = experiment: Antibacterial activity against Klebsiella pneumoniae BAMS clinical isolate 07-18 after 24 hrs by broth microdilution method; conditions: BAMS clinical isolate 07-18, 24 h
Staphylococcus aureus = experiment: Antibacterial activity against methicillin-sensitive Staphylococcus aureus UAMS-1 after 24 hrs by broth microdilution method; conditions: UAMS-1, 24 h

Row | Compound | MBC (Pseudomonas aeruginosa) | MIC (Pseudomonas aeruginosa) | MBC (Klebsiella aerogenes) | MIC (Klebsiella aerogenes) | MBC (Enterococcus faecium) | MIC (Enterococcus faecium) | MBC (Acinetobacter baumannii) | MIC (Acinetobacter baumannii) | MBC (Klebsiella pneumoniae) | MIC (Klebsiella pneumoniae) | MBC (Staphylococcus aureus) | MIC (Staphylococcus aureus)
1 | CC(=O)N[C@@H](CCCCN)C(=O)N[C@@H](CC(C)C)C(=O)N1Cc2ccccc2C[C@H]1C(=O)N1CC2CCCCC2[C@H]1C(=O)N[C@@H](CCCCN)C(=O)N1Cc2ccccc2C[C@H]1C(=O)N1CC2CCCCC2[C@H]1C(=O)N[C@@H](Cc1ccccc1)C(=O)N1Cc2ccccc2C[C@H]1C(=O)N1CC2CCCCC2[C@H]1C(=O)N[C@@H](CCCCN)C(=O)N1Cc2ccccc2C[C@H]1C(=O)N1CC2CCCCC2[C@H]1C(=O)N[C@@H](Cc1ccccc1)C(=O)N1Cc2ccccc2C[C@H]1C(=O)N1CC2CCCCC2[C@H]1C(=O)N[C@@H](CCCCN)C(=O)N1Cc2ccccc2C[C@H]1C(=O)N1CC2CCCCC2[C@H]1C(=O)N[C@@H](CCCCN)C(=O)N[C@@H](CCCCN)C(=O)N[C@@H](CCCCN)C(=O)N[C@@H](CCCCN)C(N)=O (some centres undefined) (Ac-KL[Tic][Pro(3ξ,4ξ-(CH2)4)]K[Tic][Pro(3ξ,4ξ-(CH2)4)]F[Tic][Pro(3ξ,4ξ-(CH2)4)]K[Tic][Pro(3ξ,4ξ-(CH2)4)]F[Tic][Pro(3ξ,4ξ-(CH2)4)]K[Tic][Pro(3ξ,4ξ-(CH2)4)]KKKK-NH2) | > 100 µg/mL | > 100 µg/mL | > 100 µg/mL | > 100 µg/mL | 25 µg/mL (≈ 7.45 µM) | 12.5 µg/mL (≈ 3.73 µM) | 100 µg/mL (≈ 29.8 µM) | 100 µg/mL (≈ 29.8 µM) | > 100 µg/mL | > 100 µg/mL | 50 µg/mL (≈ 14.9 µM) | 50 µg/mL (≈ 14.9 µM)
2 | CC(C)C[C@H](NC(=O)[C@@H](N)CCCCN)C(=O)N1Cc2ccccc2C[C@H]1C(=O)N1CC2CCCCC2[C@H]1C(=O)NCC(=O)N[C@@H](CCCCN)C(=O)N1Cc2ccccc2C[C@H]1C(=O)N1CC2CCCCC2[C@H]1C(=O)NCCC(=O)N[C@@H](Cc1ccccc1)C(=O)N1Cc2ccccc2C[C@H]1C(=O)N1CC2CCCCC2[C@H]1C(=O)NCC(=O)N[C@@H](CCCCN)C(=O)N1Cc2ccccc2C[C@H]1C(=O)N1CC2CCCCC2[C@H]1C(=O)NCCC(=O)N[C@@H](Cc1ccccc1)C(=O)N1Cc2ccccc2C[C@H]1C(=O)N1CC2CCCCC2[C@H]1C(=O)NCC(=O)N[C@@H](CCCCN)C(=O)N1Cc2ccccc2C[C@H]1C(=O)N1CC2CCCCC2[C@H]1C(=O)N[C@@H](CCCCN)C(=O)N[C@@H](CCCCN)C(=O)N[C@@H](CCCCN)C(=O)N[C@@H](CCCCN)C(N)=O (some centres undefined) (H-KL[Tic][Pro(3ξ,4ξ-(CH2)4)]GK[Tic][Pro(3ξ,4ξ-(CH2)4)][βAla]F[Tic][Pro(3ξ,4ξ-(CH2)4)]GK[Tic][Pro(3ξ,4ξ-(CH2)4)][βAla]F[Tic][Pro(3ξ,4ξ-(CH2)4)]GK[Tic][Pro(3ξ,4ξ-(CH2)4)]KKKK-NH2) | 50 µg/mL (≈ 13.8 µM) | 25 µg/mL (≈ 6.9 µM) | 100 µg/mL (≈ 27.6 µM) | 50 µg/mL (≈ 13.8 µM) | 25 µg/mL (≈ 6.9 µM) | 6.25 µg/mL (≈ 1.72 µM) | 25 µg/mL (≈ 6.9 µM) | 6.25 µg/mL (≈ 1.72 µM) | 50 µg/mL (≈ 13.8 µM) | 50 µg/mL (≈ 13.8 µM) | 50 µg/mL (≈ 13.8 µM) | 50 µg/mL (≈ 13.8 µM)
3 | CC(C)C[C@H](NC(=O)[C@@H](N)CCCN)C(=O)N1Cc2ccccc2C[C@H]1C(=O)N1CC2CCCCC2[C@H]1C(=O)N[C@@H](CCCN)C(=O)N1Cc2ccccc2C[C@H]1C(=O)N1CC2CCCCC2[C@H]1C(=O)N[C@@H](Cc1ccccc1)C(=O)N1Cc2ccccc2C[C@H]1C(=O)N1CC2CCCCC2[C@H]1C(=O)N[C@@H](CCCN)C(=O)N1Cc2ccccc2C[C@H]1C(=O)N1CC2CCCCC2[C@H]1C(=O)N[C@@H](Cc1ccccc1)C(=O)N1Cc2ccccc2C[C@H]1C(=O)N1CC2CCCCC2[C@H]1C(=O)N[C@@H](CCCN)C(=O)N1Cc2ccccc2C[C@H]1C(=O)N1CC2CCCCC2[C@H]1C(=O)N[C@@H](CCCN)C(=O)N[C@@H](CCCN)C(=O)N[C@@H](CCCN)C(=O)N[C@@H](CCCN)C(N)=O (some centres undefined) (H-[Orn]L[Tic][Pro(3ξ,4ξ-(CH2)4)][Orn][Tic][Pro(3ξ,4ξ-(CH2)4)]F[Tic][Pro(3ξ,4ξ-(CH2)4)][Orn][Tic][Pro(3ξ,4ξ-(CH2)4)]F[Tic][Pro(3ξ,4ξ-(CH2)4)][Orn][Tic][Pro(3ξ,4ξ-(CH2)4)][Orn][Orn][Orn][Orn]-NH2) | > 100 µg/mL | 100 µg/mL (≈ 31.2 µM) | > 100 µg/mL | 100 µg/mL (≈ 31.2 µM) | 50 µg/mL (≈ 15.6 µM) | 12.5 µg/mL (≈ 3.91 µM) | 100 µg/mL (≈ 31.2 µM) | 12.5 µg/mL (≈ 3.91 µM) | > 100 µg/mL | 100 µg/mL (≈ 31.2 µM) | 100 µg/mL (≈ 31.2 µM) | 50 µg/mL (≈ 15.6 µM)
4 | CC(C)C[C@H](NC(=O)[C@@H](N)CCCCN)C(=O)N1Cc2ccccc2C[C@H]1C(=O)N1CC2CCCCC2[C@H]1C(=O)NCC(=O)N[C@@H](CCCCN)C(=O)N1Cc2ccccc2C[C@H]1C(=O)N1CC2CCCCC2[C@H]1C(=O)NCC(=O)N[C@@H](Cc1ccccc1)C(=O)N1Cc2ccccc2C[C@H]1C(=O)N1CC2CCCCC2[C@H]1C(=O)NCC(=O)N[C@@H](CCCCN)C(=O)N1Cc2ccccc2C[C@H]1C(=O)N1CC2CCCCC2[C@H]1C(=O)NCC(=O)N[C@@H](Cc1ccccc1)C(=O)N1Cc2ccccc2C[C@H]1C(=O)N1CC2CCCCC2[C@H]1C(=O)NCC(=O)N[C@@H](CCCCN)C(=O)N1Cc2ccccc2C[C@H]1C(=O)N1CC2CCCCC2[C@H]1C(=O)N[C@@H](CCCCN)C(=O)N[C@@H](CCCCN)C(=O)N[C@@H](CCCCN)C(=O)N[C@@H](CCCCN)C(N)=O (some centres undefined) (H-KL[Tic][Pro(3ξ,4ξ-(CH2)4)]GK[Tic][Pro(3ξ,4ξ-(CH2)4)]GF[Tic][Pro(3ξ,4ξ-(CH2)4)]GK[Tic][Pro(3ξ,4ξ-(CH2)4)]GF[Tic][Pro(3ξ,4ξ-(CH2)4)]GK[Tic][Pro(3ξ,4ξ-(CH2)4)]KKKK-NH2) | 50 µg/mL (≈ 13.9 µM) | 50 µg/mL (≈ 13.9 µM) | 50 µg/mL (≈ 13.9 µM) | 50 µg/mL (≈ 13.9 µM) | 25 µg/mL (≈ 6.95 µM) | 6.25 µg/mL (≈ 1.74 µM) | 12.5 µg/mL (≈ 3.47 µM) | 12.5 µg/mL (≈ 3.47 µM) | 50 µg/mL (≈ 13.9 µM) | 50 µg/mL (≈ 13.9 µM) | 50 µg/mL (≈ 13.9 µM) | 50 µg/mL (≈ 13.9 µM)
5 | CC(=O)NCC(=O)N[C@@H](Cc1ccccc1)C(=O)N1Cc2ccccc2C[C@H]1C(=O)N1CC2CCCCC2[C@H]1C(=O)NCC(=O)N[C@@H](CCCN)C(=O)N1Cc2ccccc2C[C@H]1C(=O)N1CC2CCCCC2[C@H]1C(=O)NCC(=O)N[C@@H](Cc1ccccc1)C(=O)N1Cc2ccccc2C[C@H]1C(=O)N1CC2CCCCC2[C@H]1C(=O)NCC(=O)N[C@@H](CCCN)C(=O)N1Cc2ccccc2C[C@H]1C(=O)N[C@@H](CCCN)C(=O)N[C@@H](CCCN)C(=O)N[C@@H](CCCN)C(=O)N[C@@H](CCCN)C(=O)NC(C)=O (some centres undefined) (Ac-GF[Tic][Pro(3ξ,4ξ-(CH2)4)]G[Orn][Tic][Pro(3ξ,4ξ-(CH2)4)]GF[Tic][Pro(3ξ,4ξ-(CH2)4)]G[Orn][Tic][Orn][Orn][Orn]-X4) | 50 µg/mL (≈ 20.8 µM) | 50 µg/mL (≈ 20.8 µM) | > 100 µg/mL | 100 µg/mL (≈ 41.7 µM) | 50 µg/mL (≈ 20.8 µM) | 12.5 µg/mL (≈ 5.21 µM) | 25 µg/mL (≈ 10.4 µM) | 6.25 µg/mL (≈ 2.61 µM) | 50 µg/mL (≈ 20.8 µM) | 50 µg/mL (≈ 20.8 µM) | 100 µg/mL (≈ 41.7 µM) | 100 µg/mL (≈ 41.7 µM)
6 | CC(=O)NCC(=O)N[C@@H](Cc1ccccc1)C(=O)N1Cc2ccccc2C[C@H]1C(=O)N1CC2CCCCC2[C@H]1C(=O)NCC(=O)N[C@@H](CCCNC(=N)N)C(=O)N1Cc2ccccc2C[C@H]1C(=O)N1CC2CCCCC2[C@H]1C(=O)NCC(=O)N[C@@H](Cc1ccccc1)C(=O)N1Cc2ccccc2C[C@H]1C(=O)N1CC2CCCCC2[C@H]1C(=O)NCC(=O)N[C@@H](CCCNC(=N)N)C(=O)N1Cc2ccccc2C[C@H]1C(=O)N[C@@H](CCCNC(=N)N)C(=O)N[C@@H](CCCNC(=N)N)C(=O)N[C@@H](CCCNC(=N)N)C(=O)N[C@@H](CCCNC(=N)N)C(N)=O (some centres undefined) (Ac-GF[Tic][Pro(3ξ,4ξ-(CH2)4)]GR[Tic][Pro(3ξ,4ξ-(CH2)4)]GF[Tic][Pro(3ξ,4ξ-(CH2)4)]GR[Tic]RRRR-NH2) | > 100 µg/mL | 100 µg/mL (≈ 38.3 µM) | 50 µg/mL (≈ 19.2 µM) | 50 µg/mL (≈ 19.2 µM) | 25 µg/mL (≈ 9.58 µM) | 6.25 µg/mL (≈ 2.4 µM) | 12.5 µg/mL (≈ 4.79 µM) | 6.25 µg/mL (≈ 2.4 µM) | 100 µg/mL (≈ 38.3 µM) | 50 µg/mL (≈ 19.2 µM) | > 100 µg/mL | 50 µg/mL (≈ 19.2 µM)
7 | CC(=O)NCC(=O)N[C@@H](Cc1ccccc1)C(=O)N1Cc2ccccc2C[C@H]1C(=O)N1CC2CCCCC2[C@H]1C(=O)NCC(=O)N[C@@H](CCCCN)C(=O)N1Cc2ccccc2C[C@H]1C(=O)N1CC2CCCCC2[C@H]1C(=O)NCC(=O)N[C@@H](Cc1ccccc1)C(=O)N1Cc2ccccc2C[C@H]1C(=O)N1CC2CCCCC2[C@H]1C(=O)NCC(=O)N[C@@H](CCCCN)C(=O)N1Cc2ccccc2C[C@H]1C(=O)N[C@@H](CCCCN)C(=O)N[C@@H](CCCCN)C(=O)N[C@@H](CCCCN)C(N)=O (some centres undefined) (Ac-GF[Tic][Pro(3ξ,4ξ-(CH2)4)]GK[Tic][Pro(3ξ,4ξ-(CH2)4)]GF[Tic][Pro(3ξ,4ξ-(CH2)4)]GK[Tic]KKK-NH2) | > 100 µg/mL | > 100 µg/mL | > 100 µg/mL | > 100 µg/mL | 100 µg/mL (≈ 43.2 µM) | 25 µg/mL (≈ 10.8 µM) | 50 µg/mL (≈ 21.6 µM) | 12.5 µg/mL (≈ 5.4 µM) | > 100 µg/mL | 100 µg/mL (≈ 43.2 µM) | > 100 µg/mL | 100 µg/mL (≈ 43.2 µM)
